Experimental data taken from patent US10167262B2, “Herbicidal substituted 3-arylpyrazoles” (FMC CORPORATION, priority 2014, dated 2019).

Legend:
Type in all cases: in vivo
kochia (Kochia scoparia) [1] = assay: Test E pre-/postemergence greenhouse test, plant response rating 0-100; settings: Preemergence, scale 0 to 100
Method in brief: (§1)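 Pre- and postemergence sprays, vehicle non-phytotoxic solvent containing surfactant; postemergence plants 2–18 cm tall at the 1–4-leaf stage. Scored against controls after 14 to 21 days in a greenhouse, 0 being no effect and 100 complete control.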

[2] = tested on: lambsquarters (Chenopodium album); assay: as above; settings: Preemergence, scale 0 to 100
Method in brief: as §1

[3] = tested on: nightshade (eastern black nightshade, Solanum ptycanthum); assay: as above; settings: Preemergence, scale 0 to 100
Method in brief: as §1

[4] = tested on: cocklebur (common cocklebur, Xanthium strumarium); assay: as above; settings: Preemergence, scale 0 to 100
Method in brief: as §1

[5] = tested on: velvetleaf (Abutilon theophrasti); assay: as above; settings: Preemergence, scale 0 to 100
Method in brief: as §1

kochia (Kochia scoparia) [6] = assay: Test D postemergence controlled growth environment test, plant response rating 0-100
From the text: (§2) Seeds of plant species selected from bluegrass (annual bluegrass, Poa annua), blackgrass (Alopecurus myosuroides), canarygrass (Phalaris minor), chickweed (common chickweed, Stellaria media), galium (catchweed bedstraw, Galium aparine), downy bromegrass (Bromus tectorum), field violet (Viola arvensis), green foxtail (Setaria viridis), deadnettle (henbit deadnettle, Lamium amplexicaule), Italian ryegrass (Lolium multiflorum), kochia (Kochia scoparia), lambsquarters (Chenopodium album), oilseed rape (Brassica napus), pigweed (Amaranthus retroflexus), Russian thistle (Salsola kali), spring barley (Hordeum vulgare), spring wheat (Triticum aestivum), wild buckwheat (Polygonum convolvulus), wild mustard (Sinapis arvensis), wild oat (Avena fatua), windgrass (Apera spica-venti), winter barley (Hordeum vulgare), and winter wheat (Triticum aestivum) were planted in pots containing Redi-Earth® planting medium (Scotts Company, 14111 Scottslawn Road, Marysville, Ohio 43041) comprising spaghnum peat moss, vermiculite, wetting agent and starter nutrients and treated with postemergence applications of test chemicals formulated in a non-phytotoxic solvent mixture which included a surfactant. Plants ranged in height from 2 to 18 cm (1- to 4-leaf stage). Treated plants and controls were maintained in a controlled growth environment for 14 days after which time all species were compared to controls and visually evaluated. Plant response ratings, summarized in Table D, are based on a scale of 0 to 100 where 0 is no effect and 100 is complete control. A dash (-) response means no test result.

[7] = tested on: lambsquarters (Chenopodium album); assay: as above
From the text: as §2

[8] = tested on: downy bromegrass (Bromus tectorum); assay: as above
From the text: as §2

wild oat (Avena fatua) = assay: as above
From the text: as §2

[9] = tested on: pigweed (Amaranthus retroflexus); assay: as above
From the text: as §2

[10] = tested on: winter wheat (Triticum aestivum); assay: as above
From the text: as §2

[11] = tested on: green foxtail (Setaria viridis); assay: as above
From the text: as §2

[12] = tested on: Russian thistle (Salsola kali); assay: as above
From the text: as §2

[13] = tested on: galium (catchweed bedstraw, Galium aparine); assay: as above
From the text: as §2

Which results are given for `Cn1cc(C(=O)c2ccccc2)c(-c2cc(Cl)cc(Cl)c2)n1` [Compound 54, [3-(3,5-dichlorophenyl)-1-methyl-1H-pyrazol-4-yl]phenylmethanone]?
Kochia plant response rating (kochia (Kochia scoparia) [1]; 125 g ai/ha): 0; Kochia plant response rating (kochia (Kochia scoparia) [1]; 250 g ai/ha): 28; Plant response rating, Kochia (kochia (Kochia scoparia) [1]; 1000 g ai/ha): 97; Lambsquarters plant response rating ([2]; 125 g ai/ha): 68; Lambsquarters plant response rating ([2]; 250 g ai/ha): 86; Plant response rating, Lambsquarters ([2]; 1000 g ai/ha): 99; Nightshade plant response rating ([3]; 125 g ai/ha): 0; Nightshade plant response rating ([3]; 250 g ai/ha): 0; Cocklebur plant response rating ([4]; 125 g ai/ha): 0; Cocklebur plant response rating ([4]; 250 g ai/ha): 0; Velvetleaf plant response rating ([5]; 125 g ai/ha): 87; Velvetleaf plant response rating ([5]; 250 g ai/ha): 78

Which results are given for `C#CCn1cc(C(=O)c2ccccc2)c(-c2cc(Cl)cc(Cl)c2)n1` [Compound 39, [3-(3,5-dichlorophenyl)-1-(2-propyn-1-yl)-1H-pyrazol-4-yl]phenylmethanone]?
Kochia plant response rating (kochia (Kochia scoparia) [1]; 62 g ai/ha): 0; Kochia plant response rating (kochia (Kochia scoparia) [1]; 125 g ai/ha): 30; Kochia plant response rating (kochia (Kochia scoparia) [1]; 250 g ai/ha): 65; Kochia plant response rating (kochia (Kochia scoparia) [1]; 500 g ai/ha): 75; Lambsquarters plant response rating ([2]; 62 g ai/ha): 90; Lambsquarters plant response rating ([2]; 125 g ai/ha): 95; Lambsquarters plant response rating ([2]; 250 g ai/ha): 90; Lambsquarters plant response rating ([2]; 500 g ai/ha): 100; Nightshade plant response rating ([3]; 62 g ai/ha): 0; Nightshade plant response rating ([3]; 125 g ai/ha): 0; Nightshade plant response rating ([3]; 250 g ai/ha): 100; Nightshade plant response rating ([3]; 500 g ai/ha): 95; Velvetleaf plant response rating ([5]; 62 g ai/ha): 15; Velvetleaf plant response rating ([5]; 125 g ai/ha): 75; Velvetleaf plant response rating ([5]; 250 g ai/ha): 90; Velvetleaf plant response rating ([5]; 500 g ai/ha): 100; Plant response rating, Kochia (kochia (Kochia scoparia) [6]; 16 g ai/ha): 0; Plant response rating, Kochia (kochia (Kochia scoparia) [6]; 31 g ai/ha): 0; Plant response rating, Kochia (kochia (Kochia scoparia) [6]; 62 g ai/ha): 20; Plant response rating, Kochia (kochia (Kochia scoparia) [6]; 125 g ai/ha): 10; Plant response rating, Kochia (kochia (Kochia scoparia) [6]; 250 g ai/ha): 20; Plant response rating, Lambsquarters ([7]; 16 g ai/ha): 0; Plant response rating, Lambsquarters ([7]; 31 g ai/ha): 0; Plant response rating, Lambsquarters ([7]; 62 g ai/ha): 10; Plant response rating, Lambsquarters ([7]; 125 g ai/ha): 20; Plant response rating, Lambsquarters ([7]; 250 g ai/ha): 25; Plant response rating, Bromegrass, Downy ([8]; 16 g ai/ha): 0; Plant response rating, Bromegrass, Downy ([8]; 31 g ai/ha): 0; Plant response rating, Bromegrass, Downy ([8]; 62 g ai/ha): 0; Plant response rating, Bromegrass, Downy ([8]; 125 g ai/ha): 0; Plant response rating, Bromegrass, Downy ([8]; 250 g ai/ha): 0; Plant response rating, Oat, Wild (wild oat (Avena fatua); 16 g ai/ha): 0; Plant response rating, Oat, Wild (wild oat (Avena fatua); 31 g ai/ha): 0; Plant response rating, Oat, Wild (wild oat (Avena fatua); 62 g ai/ha): 0; Plant response rating, Oat, Wild (wild oat (Avena fatua); 125 g ai/ha): 0; Plant response rating, Oat, Wild (wild oat (Avena fatua); 250 g ai/ha): 0; Plant response rating, Pigweed ([9]; 16 g ai/ha): 30; Plant response rating, Pigweed ([9]; 31 g ai/ha): 30; Plant response rating, Pigweed ([9]; 62 g ai/ha): 50; Plant response rating, Pigweed ([9]; 125 g ai/ha): 75; Plant response rating, Pigweed ([9]; 250 g ai/ha): 80; Plant response rating, Wheat, Winter ([10]; 16 g ai/ha): 0; Plant response rating, Wheat, Winter ([10]; 31 g ai/ha): 0; Plant response rating, Wheat, Winter ([10]; 62 g ai/ha): 0; Plant response rating, Wheat, Winter ([10]; 125 g ai/ha): 0; Plant response rating, Wheat, Winter ([10]; 250 g ai/ha): 0; Plant response rating, Foxtail, Green ([11]; 16 g ai/ha): 0; Plant response rating, Foxtail, Green ([11]; 31 g ai/ha): 0; Plant response rating, Foxtail, Green ([11]; 62 g ai/ha): 0; Plant response rating, Foxtail, Green ([11]; 125 g ai/ha): 0; Plant response rating, Foxtail, Green ([11]; 250 g ai/ha): 10; Plant response rating, Russian Thistle ([12]; 16 g ai/ha): 0; Plant response rating, Russian Thistle ([12]; 31 g ai/ha): 0; Plant response rating, Russian Thistle ([12]; 62 g ai/ha): 10; Plant response rating, Russian Thistle ([12]; 125 g ai/ha): 20; Plant response rating, Russian Thistle ([12]; 250 g ai/ha): 25; Plant response rating, Galium ([13]; 16 g ai/ha): 0; Plant response rating, Galium ([13]; 31 g ai/ha): 0; Plant response rating, Galium ([13]; 62 g ai/ha): 0; Plant response rating, Galium ([13]; 125 g ai/ha): 0; Plant response rating, Galium ([13]; 250 g ai/ha): 0
